# Laboratory results taken from BindingDB's records for doi:10.1021/jm701049p (Seoul National University, 2008).
# pKi: −log10 of the molar value.
# Target: Transient receptor potential cation channel subfamily V member 1 (Rattus norvegicus, UniProt O35433)
# Experiment: Competition Binding Assay and Inhibition of Ca2+ Uptake Assay
# Details: pH 7.4, 37 °C
# Protocol: Binding assay mixtures were set up and contained [3H] RTX, various concentrations of competing ligands, and rVR1-transfected CHO cells. Nonspecific binding was determined in the presence of 100 nM nonradioactive RTX. After the binding reaction, membrane-bound RTX was separated from the free by centrifugation, and the radioactivity was determined by scintillation counting. Equilibrium binding parameters (Ki, Bmax, and cooperativity) were determined by fitting the Hill equation to the measured values with the aid of the program Origin 6.0.
# Sequence of Transient receptor potential cation channel subfamily V member 1 (O35433 whole entry): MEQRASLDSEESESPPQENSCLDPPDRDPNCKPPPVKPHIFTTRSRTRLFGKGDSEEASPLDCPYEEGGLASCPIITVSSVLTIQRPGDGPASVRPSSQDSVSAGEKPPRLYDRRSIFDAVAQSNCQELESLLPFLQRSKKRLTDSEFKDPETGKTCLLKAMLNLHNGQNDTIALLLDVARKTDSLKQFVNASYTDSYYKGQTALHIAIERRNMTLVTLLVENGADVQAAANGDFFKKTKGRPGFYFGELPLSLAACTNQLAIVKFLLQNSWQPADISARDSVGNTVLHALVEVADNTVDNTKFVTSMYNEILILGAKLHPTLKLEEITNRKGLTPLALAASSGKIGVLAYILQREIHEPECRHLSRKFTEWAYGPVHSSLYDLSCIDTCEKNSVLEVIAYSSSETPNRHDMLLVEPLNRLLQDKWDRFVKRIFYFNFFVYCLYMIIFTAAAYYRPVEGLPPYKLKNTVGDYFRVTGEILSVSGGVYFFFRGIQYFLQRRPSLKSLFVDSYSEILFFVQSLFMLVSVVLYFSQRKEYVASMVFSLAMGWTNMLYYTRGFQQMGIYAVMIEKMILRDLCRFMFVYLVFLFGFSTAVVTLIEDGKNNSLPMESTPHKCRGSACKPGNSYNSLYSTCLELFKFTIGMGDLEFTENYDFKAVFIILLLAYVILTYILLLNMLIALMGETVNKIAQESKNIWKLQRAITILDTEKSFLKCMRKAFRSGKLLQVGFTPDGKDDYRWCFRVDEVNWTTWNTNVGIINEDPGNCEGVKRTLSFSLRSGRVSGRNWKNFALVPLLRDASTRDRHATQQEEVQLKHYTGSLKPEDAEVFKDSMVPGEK
Compound,pKi,pKi (read-out: Ki)
CC(C)(C)C(=O)OCC(CNC(=S)NCc1ccc(NS(C)(=O)=O)c(F)c1)Cc1ccc(C(C)(C)C)cc1 (stereo not drawn),7.28,
CC(C)(C)C(=O)OCC(CNC(=O)Cc1ccc(NS(C)(=O)=O)c(F)c1)Cc1ccc(C(C)(C)C)cc1 (stereo not drawn),6.36,
Cc1ccc(CC(CNC(=S)NCc2ccc(NS(C)(=O)=O)c(F)c2)COC(=O)C(C)(C)C)cc1C (stereo not drawn),8.11,
"Cc1ccc(CC(CNC(=O)C(C)(C)c2ccc(NS(C)(=O)=O)c(F)c2)COC(=O)C(C)(C)C)cc1C (stereo not drawn) [2-[(3,4-dimethylphenyl)methyl]-3-[2-(3-fluoro-4-methanesulfonamidophenyl)-2-methylpropanamido]propyl 2,2-dimethylpropanoate]",7.19,
"Cc1ccc(CC(CNC(=O)C(C)c2ccc(NS(C)(=O)=O)c(F)c2)COC(=O)C(C)(C)C)cc1C (stereo not drawn) [2-[(3,4-dimethylphenyl)methyl]-3-[2-(3-fluoro-4-methanesulfonamidophenyl)propanamido]propyl 2,2-dimethylpropanoate]",7.97,
"COc1cc(C(C)(C)C(=O)NCC(COC(=O)C(C)(C)C)Cc2ccc(C)c(C)c2)ccc1NS(C)(=O)=O (stereo not drawn) [2-[(3,4-dimethylphenyl)methyl]-3-[2-(4-methanesulfonamido-3-methoxyphenyl)-2-methylpropanamido]propyl 2,2-dimethylpropanoate]",6.88,
"COc1cc(C(C)C(=O)NCC(COC(=O)C(C)(C)C)Cc2ccc(C)c(C)c2)ccc1NS(C)(=O)=O (stereo not drawn) [2-[(3,4-dimethylphenyl)methyl]-3-[2-(4-methanesulfonamido-3-methoxyphenyl)propanamido]propyl 2,2-dimethylpropanoate]",7.87,
"Cc1ccc(CC(CNC(=O)C(C)(C)c2ccc(NS(C)(=O)=O)cc2)COC(=O)C(C)(C)C)cc1C (stereo not drawn) [2-[(3,4-dimethylphenyl)methyl]-3-[2-(4-methanesulfonamidophenyl)-2-methylpropanamido]propyl 2,2-dimethylpropanoate]",6.98,
"Cc1ccc(CC(CNC(=O)C(C)c2ccc(NS(C)(=O)=O)cc2)COC(=O)C(C)(C)C)cc1C (stereo not drawn) [2-[(3,4-dimethylphenyl)methyl]-3-[2-(4-methanesulfonamidophenyl)propanamido]propyl 2,2-dimethylpropanoate]",7.42,
"Cc1ccc(CC(CNC(=O)C2(c3ccc(NS(C)(=O)=O)c(F)c3)CC2)COC(=O)C(C)(C)C)cc1C (stereo not drawn) [2-[(3,4-dimethylphenyl)methyl]-3-{[1-(3-fluoro-4-methanesulfonamidophenyl)cyclopropyl]formamido}propyl 2,2-dimethylpropanoate]",6.25,
"COc1cc(C2(C(=O)NCC(COC(=O)C(C)(C)C)Cc3ccc(C)c(C)c3)CC2)ccc1NS(C)(=O)=O (stereo not drawn) [2-[(3,4-dimethylphenyl)methyl]-3-{[1-(4-methanesulfonamido-3-methoxyphenyl)cyclopropyl]formamido}propyl 2,2-dimethylpropanoate]",6.93,
"Cc1ccc(CC(CNC(=O)C2(c3ccc(NS(C)(=O)=O)cc3)CC2)COC(=O)C(C)(C)C)cc1C (stereo not drawn) [2-[(3,4-dimethylphenyl)methyl]-3-{[1-(4-methanesulfonamidophenyl)cyclopropyl]formamido}propyl 2,2-dimethylpropanoate]",6.71,
"CC(C(=O)NCC(COC(=O)C(C)(C)C)Cc1ccc(C(C)(C)C)cc1)c1ccc(NS(C)(=O)=O)c(Cl)c1 (stereo not drawn) [2-[(4-tert-butylphenyl)methyl]-3-[2-(3-chloro-4-methanesulfonamidophenyl)propanamido]propyl 2,2-dimethylpropanoate]",7.91,
"CC(C(=O)NCC(COC(=O)C(C)(C)C)Cc1ccc(C(C)(C)C)cc1)c1ccc(NS(C)(=O)=O)cc1 (stereo not drawn) [2-[(4-tert-butylphenyl)methyl]-3-[2-(4-methanesulfonamidophenyl)propanamido]propyl 2,2-dimethylpropanoate]",7.28,
"Cc1ccc(CC(CNC(=O)C(C)c2ccc(NS(C)(=O)=O)c(Cl)c2)COC(=O)C(C)(C)C)cc1C (stereo not drawn) [3-[2-(3-chloro-4-methanesulfonamidophenyl)propanamido]-2-[(3,4-dimethylphenyl)methyl]propyl 2,2-dimethylpropanoate]",7.44,
"C[C@@H](C(=O)NC[C@H](COC(=O)C(C)(C)C)Cc1ccc(C(C)(C)C)cc1)c1ccc(NS(C)(=O)=O)c(F)c1 [(2R)-2-[(4-tert-butylphenyl)methyl]-3-[(2R)-2-(3-fluoro-4-methanesulfonamidophenyl)propanamido]propyl 2,2-dimethylpropanoate]",7.52,
"C[C@H](C(=O)NC[C@H](COC(=O)C(C)(C)C)Cc1ccc(C(C)(C)C)cc1)c1ccc(NS(C)(=O)=O)c(Cl)c1 [(2R)-2-[(4-tert-butylphenyl)methyl]-3-[(2S)-2-(3-chloro-4-methanesulfonamidophenyl)propanamido]propyl 2,2-dimethylpropanoate]",8.28,
"C[C@H](C(=O)NC[C@H](COC(=O)C(C)(C)C)Cc1ccc(C(C)(C)C)cc1)c1ccc(NS(C)(=O)=O)c(F)c1 [(2R)-2-[(4-tert-butylphenyl)methyl]-3-[(2S)-2-(3-fluoro-4-methanesulfonamidophenyl)propanamido]propyl 2,2-dimethylpropanoate]",9.24,
"C[C@@H](C(=O)NC[C@H](COC(=O)C(C)(C)C)Cc1ccccc1)c1ccc(NS(C)(=O)=O)c(F)c1 [(2R)-2-benzyl-3-[(2R)-2-(3-fluoro-4-methanesulfonamidophenyl)propanamido]propyl 2,2-dimethylpropanoate]",7.01,
"C[C@H](C(=O)NC[C@H](COC(=O)C(C)(C)C)Cc1ccccc1)c1ccc(NS(C)(=O)=O)c(F)c1 [(2R)-2-benzyl-3-[(2S)-2-(3-fluoro-4-methanesulfonamidophenyl)propanamido]propyl 2,2-dimethylpropanoate]",8.07,
"C[C@@H](C(=O)NC[C@@H](COC(=O)C(C)(C)C)Cc1ccc(C(C)(C)C)cc1)c1ccc(NS(C)(=O)=O)c(F)c1 [(2S)-2-[(4-tert-butylphenyl)methyl]-3-[(2R)-2-(3-fluoro-4-methanesulfonamidophenyl)propanamido]propyl 2,2-dimethylpropanoate]",6.85,
"C[C@H](C(=O)NC[C@@H](COC(=O)C(C)(C)C)Cc1ccc(C(C)(C)C)cc1)c1ccc(NS(C)(=O)=O)c(Cl)c1 [(2S)-2-[(4-tert-butylphenyl)methyl]-3-[(2S)-2-(3-chloro-4-methanesulfonamidophenyl)propanamido]propyl 2,2-dimethylpropanoate]",7.92,
"C[C@H](C(=O)NC[C@@H](COC(=O)C(C)(C)C)Cc1ccc(C(C)(C)C)cc1)c1ccc(NS(C)(=O)=O)c(F)c1 [(2S)-2-[(4-tert-butylphenyl)methyl]-3-[(2S)-2-(3-fluoro-4-methanesulfonamidophenyl)propanamido]propyl 2,2-dimethylpropanoate]",7.96,
"C[C@@H](C(=O)NC[C@@H](COC(=O)C(C)(C)C)Cc1ccccc1)c1ccc(NS(C)(=O)=O)c(F)c1 [(2S)-2-benzyl-3-[(2R)-2-(3-fluoro-4-methanesulfonamidophenyl)propanamido]propyl 2,2-dimethylpropanoate]",6.69,
"C[C@H](C(=O)NC[C@@H](COC(=O)C(C)(C)C)Cc1ccccc1)c1ccc(NS(C)(=O)=O)c(F)c1 [(2S)-2-benzyl-3-[(2S)-2-(3-fluoro-4-methanesulfonamidophenyl)propanamido]propyl 2,2-dimethylpropanoate]",8.00,
"C=C(C)[C@]12C[C@@H](C)[C@@]34OC(Cc5ccccc5)(O[C@@H]1[C@@H]3C=C(COC(=O)Cc1cc(I)c(O)c(OC)c1)C[C@]1(O)C(=O)C(C)=C[C@@H]41)O2 [[(1R,2R,6R,10S,11R,15R,17R)-13-benzyl-6-hydroxy-4,17-dimethyl-5-oxo-15-(prop-1-en-2-yl)-12,14,18-trioxapentacyclo[11.4.1.0^{1,10}.0^{2,6}.0^{11,15}]octadeca-3,8-dien-8-yl]methyl 2-(4-hydroxy-3-iodo-5-methoxyphenyl)acetate]",7.91,9.21
CC(C(=O)NCC(COC(=O)C(C)(C)C)Cc1ccc(C(C)(C)C)cc1)c1ccc(NS(C)(=O)=O)c(F)c1 (stereo not drawn) [diastereomeric mixture],8.49,
